Measurements taken from patent US6376540B1, “Furan nitrone compounds” (Centaur Pharmaceuticals, Inc., priority 1996, dated 2002).

Assays:
female Lewis rats [1] = experiment: MBP-induced experimental allergic encephalomyelitis (EAE), behavioral score; format: in vivo, rat; settings: 100 mg/kg po once a day from days 4 to 18
Description: Experimental allergic encephalomyelitis (EAE) induced by injection of myelin basic protein (MBP) or MBP peptide fragments is reported to be a useful model for MS. See, for example, D. E. McFarlin et al., “Recurrent Experimental Allergic Encephalomyelitis in the Lewis Rat,” The Journal of Immunology, 113(2): 712-715 (1974).
(§1) Acclimated female Lewis rats, (Harlan; 200-250 g) were used in this experiment since this strain of rat is genetically highly susceptible to EAE. In the experiment, 100 mg/kg of N-isopropyl-α-(2-sulfofuran-5-yl)nitrone sodium salt (prepared in Example 1 above) or a vehicle alone (control) was administered po once a day from days 4 to 18. On day 1, the rats received an injection of 100 μg of MBP peptide, from guinea pig brain, plus 500 μg of H37RA Mycobacterium in 0.10 ml complete Freund's adjuvant divided equally between the two hind foot-pads.
The rats were evaluated on a 0-6 scale every day after day 7 until day 18 (effects usually begin day 10 and peak day 15). See E. Heber-Katz, “The Ups and Downs of EAE,” International Reviews Immunology, 9: 277-285 (1992). […] Results are expressed as a behavioral score ranging from 0 to 6.

Male Sprague-Dawley rats = experiment: Locomotor impairment due to Aβ(25-35), apomorphine-induced circling; format: in vivo, rat; settings: one hour before and three hours post Aβ injection, apomorphine 0.5 mg/kg s.c. one week after
Description: Male Sprague-Dawley rats (250-400 g) were given an ipsilateral injection of 20 μg of Aβ(25-35) into their substantia nigra. Prior to the injection, the rats were fasted overnight and then each received an oral treatment of N-isopropyl-α-(2-sulfofuran-5-yl)nitrone sodium salt (prepared in Example 1 above)(10-100 mg/kg) dissolved in aqueous 1% methyl cellulose or the vehicle alone, one hour before and three hours post the Aβ-peptide stereotaxic injection. One week after treatment, the rats were dosed s.c. with 0.5 mg/kg apomorphine (dissolved in 0.1% vitamin C in isotonic saline) and the circling reflex was monitored using a Rotorat computerized behavioral monitoring apparatus for the time period between 15 and 30 minutes of being placed in the arena. Impairment of the animals due to Aβ-peptide was determined by measuring the number of rotations over the 15 minute period. A higher number of rotations per period indicates more physical impairment.

[2] = system: rat permanent middle cerebral artery occlusion (MCAO) model; experiment: Rat permanent middle cerebral artery occlusion (MCAO) stroke model; format: in vivo
Description: A rat permanent middle cerebral artery occlusion (MCAO) model was used to determine stroke treatment efficacy. MCAO is a representative model of acute CNS disorders. See, for example, M. D. Ginsberg et al., “Rodent Models of Cerebral Ischemia” (1989) Stroke, 20:1627-1642. In this stroke model, the middle cerebral artery was permanently occluded via cauterization to produce a focal stroke. N-isopropyl-α-(2-sulfofuran-5-yl)nitrone, sodium salt (prepared in Example 1 above) was then administered as a 10 mg/kg i.v. bolus dose three hours post MCAO through a catheter surgically implanted in the jugular vein. Two days post MCAO, the rats were sacrificed and the extent of brain damage assessed using tetrazolium staining (TTC staining) followed by computer image analysis to quantitate infarct volumes, i.e., the regions of dead tissue. The mean infarct volume for rats treated with the test compound was 24.7 mm^3 whereas the mean infarct volume for rats not treated with the test compound was 36.0 mm^3. […] Thus, N-isopropyl-α-(2-sulfofuran-5-yl)nitrone, sodium salt reduced the mean infarct volume of a stroke by 32% when administered three hours post stroke compared to controls.

female Lewis rats [3] = experiment: Prevention of weight loss in the EAE model; format: in vivo, rat; settings: 100 mg/kg po once a day, weighed daily
Description: as §1
To determine if the furan nitrones of formula I prevented such weight loss, the animals in the EAE model described in Example 27 above were weighed daily.

With CC(C)[N+]([O-])=Cc1ccc(S(=O)(=O)O)o1 [Example 1, N-Isopropyl-α-(2-sulfofuran-5-yl)nitrone] the “effect of MBP on behavioral score (0-6 scale)” value (female Lewis rats [1]) was “completely counteracted the effect of MBP”, the “Rotations Over 15 Minute Period” value (Male Sprague-Dawley rats; Aβ(25-35) + 10 mg/kg oral) was 9 and the “Rotations Over 15 Minute Period” value (Male Sprague-Dawley rats; Aβ(25-35) + 100 mg/kg oral) was 6. For the same compound, the mean infarct volume ([2]; 10 mg/kg i.v. bolus three hours post MCAO, two days post MCAO, TTC staining) was 24.7 mm^3, the “reduction of mean infarct volume compared to controls” value ([2]; 10 mg/kg i.v. bolus three hours post stroke) was 32% and the weight change (female Lewis rats [3]) was “normal or above normal weight gain”.
